In patent US20240124434A1, “ATF6 INHIBITORS AND USES THEREOF” (Altos Labs, Inc., priority 2018, published 2024):
Like-named read-outs stand apart in the source and are kept apart here.

Tested on: ATF6
Assay: ERSE ATF6-luciferase reporter assay (thapsigargin-induced ER stress)
Format: cell-based, human
Conditions: Homo sapiens, U2OS; for inhibition at 1 µM: read-out: Inh. ATF6-Luc @ 1 μM [%]
Protocol: Human bone osteosarcoma (U2-OS) cells were obtained from the American Type Culture Collection (ATCC HTB-96, ATCC Manassas, VA) and were cultured with growing medium containing Dulbecco's Modified Eagle's Medium (DMEM) (Cat. No.:SH30023.02, HyClone) supplemented with fetal bovine serum (FBS) 10% (Cat. No.: 16000044, Gibco) and 1% penicillin-streptomycin antibiotic cocktail (Cat. No.: SV30010, Hyclone).
Cignal Lenti ATF6 luc reporter (Qiagen #CLS-6031L) was used to produce a stable cell line in U2-OS cells. […] The number of response elements as well as the intervening sequence between response elements has been experimentally optimized to maximize the signal to noise ratio.
Compounds were prepared as 10 mM stock solutions and stored at −80° C.
U2-OS ATF6 luc reporter cells were thawed 3-4 days and split once prior to assays. […] At the day of experiment, cells were pre-treated for 30 min with 50 μL growing medium containing either vehicle (dimethyl sulfoxide (DMSO)) (Cat. No.: D2650, Sigma-Aldrich) or 1 μM test compound. After the pre-incubation time, 50 μL of a solution containing 0.2 μM thapsigargin (Tg)(an ER stress inducer) was added to respective wells. This Tg solution also contained vehicle or test compounds at 1 μM. The final concentration of DMSO in each well was kept at 0.3%. Plates were incubated for 8 hr in humidified chambers.
Finally, after 8 hr, plates were cooled to room temperature for 10 min prior to luciferase assays. Luciferase reactions were performed using Luciferase Assay System (Cat. No.: E4550, Promega). Briefly, each well was washed with 100 μl of PBS1X and then 20 μl of lysis reagent were added into each well. Plates were shaken for 10 min, then 50 μl of Luciferase Assay Reagent were added to each well and luminescence was read with an integration time of 1 s and a gain of 110 in a Synergy 4 Microplate reader.
For the assessment of the half-maximal inhibitory concentration (IC50) for selected compounds, dose-response assays were performed. Compounds were serially diluted using DMSO starting at 30 μM until 1 nM. The assays were run as described above.

[1] = dose-response 30 μM to 1 nM, thapsigargin-induced ER stress, U2-OS ATF6 luc reporter cells, read-out: IC50 ATF6-Luc reporter
[2] = 8 h, 1 μM test compound, thapsigargin-induced ER stress, U2-OS ATF6 luc reporter cells, 8 hr

| Structure (SMILES) | IC50 [1] [µM] | inhibition at 1 µM (1 μM test compound, thapsigargin-induced ER stress, U2-OS ATF6 luc reporter cells, 8 hr) [%] | inhibition at 1 µM [2] [%] | inhibition at 1 µM (8 h) [%] | IC50 (read-out: IC50 ATF6-Luc reporter [μM]) [µM] |
| --- | --- | --- | --- | --- | --- |
| COc1ccccc1-c1cc(C(=O)Nc2cnn(Cc3ccc(C(F)(F)F)cc3C(F)(F)F)c2)no1 [Compound 91, N-(1-(2,4-bis(trifluoromethyl)benzyl)-1H-pyrazol-4-yl)-5-(2-methoxyphenyl)isoxazole-3-carboxamide] | > 10 | < 25 |  |  |  |
| O=C(Nc1cnn([C@H]2CCc3ccccc32)c1)c1cc(-c2ccco2)on1 [Compound 150, (S)—N-(1-(2,3-dihydro-1H-inden-1-yl)-1H-pyrazol-4-yl)-5-(furan-2-yl)isoxazole-3-carboxamide] | > 10 |  | < 25 |  |  |
| CC(c1ccc(C(F)(F)F)cc1C(F)(F)F)n1cc(NC(=O)c2csc(-c3ccccn3)n2)cn1 (centres unmarked) [Compound 79, N-(1-(1-(2,4-bis(trifluoromethyl)phenyl)ethyl)-1H-pyrazol-4-yl)-2-(pyridin-2-yl)thiazole-4-carboxamide] |  |  |  | < 25 | > 10 |
| O=C(Nc1cnn(C2Cc3ccccc3C2)c1)c1cc(-c2ccco2)on1 [Compound 18, N-(1-(2,3-dihydro-1H-inden-2-yl)-1H-pyrazol-4-yl)-5-(furan-2-yl) isoxazole-3-carboxamide] | > 10 |  | < 25 |  |  |
| O=C(Nc1cnn(Cc2cc(C(F)(F)F)cc(C(F)(F)F)c2)c1)c1cc(-c2ccco2)on1 [Compound 28, N-(1-(3,5-bis(trifluoromethyl)benzyl)-1H-pyrazole-4-yl)-5-(furan-2-yl)isoxazole-3-carboxamide] | > 10 |  | < 25 |  |  |
| CC(c1ccc(C(F)(F)F)cc1C(F)(F)F)n1cc(NC(=O)c2cc(-c3ncccc3Cl)on2)cn1 (centres unmarked) [Compound 32, N-(1-(1-(2,4-bis(trifluoromethyl)phenyl)ethyl)-1H-pyrazol-4-yl)-5-(3-chloropyridin-2-yl)isoxazole-3-carboxamide] | > 10 |  | < 25 |  |  |
| C[C@H](c1ccc(C(F)(F)F)cc1C(F)(F)F)n1cc(NC(=O)/C=C/c2ccco2)cn1 [Compound 85, (R,E)—N-(1-(1-(2,4-bis(trifluoromethyl)phenyl)ethyl)-1H-pyrazol-4-yl)-3-(furan-2-yl)acrylamide] | > 10 |  | < 25 |  |  |

The next lines start with results.

| IC50 [1] [µM] | Structure (SMILES) | inhibition at 1 µM (1 μM test compound, thapsigargin-induced ER stress, U2-OS ATF6 luc reporter cells, 8 hr) [%] | inhibition at 1 µM [2] [%] | inhibition at 1 µM (8 h) [%] | IC50 (read-out: IC50 ATF6-Luc reporter [μM]) [µM] |
| --- | --- | --- | --- | --- | --- |
| > 10 | C[C@H](c1ccc(C(F)(F)F)cc1C(F)(F)F)n1cc(NC(=O)c2cc(-c3ccccn3)[nH]n2)cn1 [Compound 119, (R)—N-(1-(1-(2,4-bis(trifluoromethyl)phenyl)ethyl)-1H-pyrazol-4-yl)-5-(pyridin-2-yl)-1H-pyrazole-3-carboxamide] |  | < 25 |  |  |
| > 10 | CC(c1ccc(F)cc1C(F)(F)F)n1cc(NC(=O)c2nnc(-c3ccccn3)s2)cn1 (centres unmarked) [Compound 137, N-(1-(1-(4-fluoro-2-(trifluoromethyl)phenyl)ethyl)-1H-pyrazol-4-yl)-5-(pyridin-2-yl)-1,3,4-thiadiazole-2-carboxamide] |  | < 25 |  |  |
| > 10 | CC(c1ccc(C(F)(F)F)cc1C(F)(F)F)n1cc(NC(=O)c2cnc(-c3ccco3)s2)cn1 (centres unmarked) [Compound 80, N-(1-(1-(2,4-bis(trifluoromethyl)phenyl)ethyl)-1H-pyrazol-4-yl)-2-(furan-2-yl)thiazole-5-carboxamide] |  | < 25 |  |  |
| > 10 | C[C@@H](c1ccc(C(F)(F)F)cc1C(F)(F)F)n1cc(NC(=O)c2cc(-c3ncccn3)on2)cn1 [Compound 102, (S)—N-(1-(1-(2,4-bis(trifluoromethyl)phenyl)ethyl)-1H-pyrazol-4-yl)-5-(pyrimidin-2-yl)isoxazole-3-carboxamide] |  | < 25 |  |  |
| > 10 | C[C@H](c1ccc(C(F)(F)F)cc1C(F)(F)F)n1cc(NC(=O)c2coc(-c3ccccn3)n2)cn1 [Compound 125, (R)—N-(1-(1-(2,4-bis(trifluoromethyl)phenyl)ethyl)-1H-pyrazol-4-yl)-2-(pyridin-2-yl)oxazole-4-carboxamide] |  | < 25 |  |  |
| > 10 | C[C@@H](c1ccc(C(F)(F)F)cc1C(F)(F)F)n1cc(NC(=O)c2nnc(-c3ccccn3)o2)cn1 [Compound 134] |  | < 25 |  |  |
